Laboratory results taken from patent US12391724B2, “Polypodoside sweet flavor modifier” (Firmenich Incorporated, priority 2019, dated 2025).

Experiments:
T1R2/T1R3 receptor = target: T1, T1R2/T1R3 receptor (Homo sapiens, UniProt Q7RTX0+Q8TE23); assay: activation of the T1R2/T1R3 receptor; assay type: cell-based
T1 sequence (Q8TE23 20-839): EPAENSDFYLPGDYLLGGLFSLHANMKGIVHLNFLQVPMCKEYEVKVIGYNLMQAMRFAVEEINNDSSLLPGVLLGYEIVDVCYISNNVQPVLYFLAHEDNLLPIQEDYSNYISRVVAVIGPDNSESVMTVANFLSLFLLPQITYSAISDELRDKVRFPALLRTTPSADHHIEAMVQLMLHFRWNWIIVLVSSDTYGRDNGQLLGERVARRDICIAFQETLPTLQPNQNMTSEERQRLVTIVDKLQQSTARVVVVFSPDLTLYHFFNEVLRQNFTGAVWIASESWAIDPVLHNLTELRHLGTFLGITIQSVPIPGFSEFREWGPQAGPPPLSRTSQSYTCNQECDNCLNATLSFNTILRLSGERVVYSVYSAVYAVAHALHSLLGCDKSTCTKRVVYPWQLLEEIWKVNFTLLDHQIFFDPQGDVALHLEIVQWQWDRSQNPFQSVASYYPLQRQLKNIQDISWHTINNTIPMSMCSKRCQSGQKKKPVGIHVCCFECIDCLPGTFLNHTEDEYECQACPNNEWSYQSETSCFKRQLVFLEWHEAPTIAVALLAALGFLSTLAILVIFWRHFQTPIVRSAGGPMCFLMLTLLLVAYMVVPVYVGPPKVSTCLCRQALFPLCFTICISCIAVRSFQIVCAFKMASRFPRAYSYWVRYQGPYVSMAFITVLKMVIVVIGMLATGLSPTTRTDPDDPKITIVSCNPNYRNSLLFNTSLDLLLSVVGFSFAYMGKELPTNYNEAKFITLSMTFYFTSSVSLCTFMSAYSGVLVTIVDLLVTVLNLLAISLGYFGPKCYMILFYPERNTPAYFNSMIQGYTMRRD
T1 sequence (Q7RTX0 21-852): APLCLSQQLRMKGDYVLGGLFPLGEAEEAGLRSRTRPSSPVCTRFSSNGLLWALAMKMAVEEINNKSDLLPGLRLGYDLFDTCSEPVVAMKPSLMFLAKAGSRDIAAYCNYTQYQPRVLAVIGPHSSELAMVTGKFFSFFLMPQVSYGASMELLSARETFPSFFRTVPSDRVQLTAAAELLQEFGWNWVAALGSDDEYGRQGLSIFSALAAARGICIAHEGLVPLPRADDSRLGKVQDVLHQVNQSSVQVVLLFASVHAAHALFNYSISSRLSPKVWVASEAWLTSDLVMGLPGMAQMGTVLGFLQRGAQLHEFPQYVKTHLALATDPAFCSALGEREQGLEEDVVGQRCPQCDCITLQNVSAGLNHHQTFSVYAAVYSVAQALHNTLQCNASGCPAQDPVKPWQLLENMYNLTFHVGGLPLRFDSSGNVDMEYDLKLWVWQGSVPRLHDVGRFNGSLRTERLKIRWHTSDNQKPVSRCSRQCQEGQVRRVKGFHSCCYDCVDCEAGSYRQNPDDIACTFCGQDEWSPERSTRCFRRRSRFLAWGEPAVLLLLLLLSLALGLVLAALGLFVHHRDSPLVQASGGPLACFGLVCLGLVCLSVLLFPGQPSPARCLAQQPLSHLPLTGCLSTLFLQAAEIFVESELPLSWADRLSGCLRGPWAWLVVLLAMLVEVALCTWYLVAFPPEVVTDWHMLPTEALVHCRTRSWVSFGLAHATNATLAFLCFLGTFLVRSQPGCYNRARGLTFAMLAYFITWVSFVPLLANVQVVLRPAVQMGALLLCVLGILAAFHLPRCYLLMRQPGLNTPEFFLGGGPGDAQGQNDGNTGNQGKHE
Source text: The present isolated compounds have been tested and shown sweet taste modifying activities.

[1] = tested on: human panelists (sweetness); assay: paired comparison (2-AFC) taste test for sweetness with human panelists; assay type: in vivo
Method: Test samples containing experimental compounds were presented in pairs to the human panelist and they were asked to determine which of the sample is sweeter. […] A group of 10-16 or more panelists participated in each test. Subjects refrained from eating or drinking (except water) for at least 1 hour prior to the test. Subjects rinsed with water several times to clean the mouth.
Taste tests were performed with sucrose or HFCS as the sweetener in the presence or absence of compound. A 0.2% stock solution of compound in water with sodium bicarbonate was prepared and then this stock solution was diluted in the final sample to achieve the targeted final concentration of compound. For the sample evaluated at pH 2.8 the pH of the solution is decreased to about pH 2.8 using citric acid. Taste samples were also prepared in a low sodium phosphate buffer (pH 7.1; “LSB”) lacking sucrose or HFCS to evaluate the taste of the compound alone. Low sodium phosphate buffer consists of 0.3 mM KCl, 0.5 mM Na2HPO4, and 0.175 mM KH2PO4. Sample volumes are usually 20 ml.
In one paired comparison test, the panelist was presented with two different samples and asked to identify the sample which is sweeter. The samples within a paired comparison test were presented in a randomized, counterbalanced order. Panelists had up to a 1 minute delay between taste tests to clear the mouth of any tastes.
Binomial probability tables were used to determine the probability of the correct number of responses occurring for each test at alpha=0.05
Paired comparison taste test for sweetness (0.25 mL sample size)

[2] = 4% sucrose vs 0% sucrose + 100 ppm compound, pH 7.1, total 36
[3] = 4% sucrose vs 0% sucrose + 125 ppm compound, pH 7.1, total 42
[4] = 4% sucrose vs 0% sucrose + 150 ppm compound, pH 7.1, total 36
[5] = 4% sucrose vs 0% sucrose + 87 ppm compound, LSB pH 7.1, total 42

With `COCC(C1CCC(C)C(OC2OC(C)C(O)C(O)C2O)O1)C1CCC2C3=CC(=O)C4CC(OC5OC(CO)C(O)C(O)C5O)CCC4(C)C3CCC21C` (centres unmarked) [Polypodoside E] as the molecule, how does the EC50 (T1R2/T1R3 receptor) read?
The EC50 was 18.4 µM.

Which EC50 (T1R2/T1R3 receptor) does the source give for `CC1CCC(C(C)C2CCC3C4=CC(=O)C5CC(OC6OC(CO)C(OC7OC(C)C(O)C(O)C7O)C(O)C6O)CCC5(C)C4CCC32C)OC1OC1OC(C)C(O)C(O)C1O` (centres unmarked) [Polypodoside G] here?
Its EC50 is 18.7 µM.

What does the source list for `C=C1C[C@@]23CC[C@H]4[C@@](C)(CCC[C@@]4(C)C(=O)O[C@@H]4O[C@H](CO)[C@@H](O)[C@H](O)[C@H]4O)[C@@H]2CC[C@]1(O[C@@H]1O[C@H](CO)[C@@H](O)[C@H](O[C@@H]2O[C@H](CO)[C@@H](O)[C@H](O)[C@H]2O)[C@H]1O[C@@H]1O[C@H](CO)[C@@H](O)[C@H](O)[C@H]1O)C3` [Reb A, Rebaudioside A]?
concentration equivalent to 4% sucrose ([1]; 2-AFC, pH 7.1): 125 ppm Reb A is equivalent to 4% sucrose.; Sample selected as sweeter by panelists: 0% Sucrose + Cmpd [1, 2]: 8; Sample selected as sweeter by panelists: 4% Sucrose [1, 2]: 28; Sample selected as sweeter by panelists: 0% Sucrose + Cmpd [1, 3]: 22; Sample selected as sweeter by panelists: 4% Sucrose [1, 3]: 20; Sample selected as sweeter by panelists: 0% Sucrose + Cmpd [1, 4]: 24; Sample selected as sweeter by panelists: 4% Sucrose [1, 4]: 12

Which EC50 (T1R2/T1R3 receptor) does the source give for Polypodoside D here?
Its EC50 is 4.15 µM.

What about the “Sample selected as sweeter by panelists: 0% Sucrose + Cmpd” value [1, 5] of the same molecule?
Its value is 18.

And the “Sample selected as sweeter by panelists: 4% Sucrose” value [1, 5]?
Its value is 24.

And the “sweetness of 4% Sucrose compared with the sample (in words)” value ([1]; 4% sucrose vs LSB + 87 ppm compound, pH ~7.1)?
The value was “not significantly different in sweetness”.

What about the “sweet taste and potency in sensory studies (in words)” value ([1]; compared with Rebaudioside A) of the same molecule?
The value was “has a sweet taste and demonstrates higher potency than Rebaudioside A”.
